This note sets out measurements from US9877923B2, “Process for preparing therapeutic nanoparticles” (Pfizer Inc., priority 2012, dated 2018).

A short description of data set [1]: Drug recovery during in vitro release experiments. The format is physicochemical. The note with it: after 4 hr incubation at 37° C. An excerpt:
Release data of 24 hr and 48 hr, in Table 4, are underlined because the drug recovered at these two time points show significant degradation (data are shown in the bottom of the table in the Drug Recovery section).

A short description of data set [2]: Dasatinib solubility in selected solvents with or without acid doping (by HPLC). To be noted: organic solvent or mixture.

Converted amounts (≈) assume the structure as drawn.

For `Cc1nc(Nc2ncc(C(=O)Nc3c(C)cccc3Cl)s2)cc(N2CCN(CCO)CC2)n1` [Dasatinib, dasatinib], in data set [1], the “stability of dasatinib during incubation” value is given as “degradation of dasatinib is observed”. Further, the solubility came to 56.5 mg/mL (≈ 116 mM) in data set [2] (1% TFA in benzyl alcohol); 103 mg/mL (≈ 211 mM) in data set [2] (2% TFA in benzyl alcohol); 157 mg/mL (≈ 322 mM) in data set [2] (3% TFA in 7.5% water in benzyl alcohol); 141 mg/mL (≈ 289 mM) in data set [2] (3% TFA in benzyl alcohol); 32.8 mg/mL (≈ 67.1 mM) in data set [2] (7.5% water in benzyl alcohol).

The term solubility denotes how much of the substance goes into solution per volume.
